According to ChEMBL document CHEMBL2417359, “Discovery of N-(2,3,5-triazoyl)mycophenolic amide and mycophenolic epoxyketone as novel inhibitors of human IMPDH” (Bioorg Med Chem Lett, 2013):
Values joined by “and” are separate entries in the source; they are usually repeats but may differ in a detail not shown here. Equal entries are not always repeated. Active and inactive are the calls of the source. The calls are words filed in the database; no cut-off is given here.

Tests used:
[1] = target: Inosine-5'-monophosphate dehydrogenase 1 (Homo sapiens, UniProt P20839); experiment: Inhibition of human IMPDH1
[2] = target: Inosine-5'-monophosphate dehydrogenase 2 (Homo sapiens, UniProt P12268); experiment: Inhibition of human IMPDH2
K562 [3] = experiment: Cytotoxicity against human K562 cells; format: functional, cell-based
K562 [4] = experiment: Induction of human K562 cell differentiation at 1 uM after 72 hrs by trypan blue exclusion assay in presence of guanosine; format: functional, cell-based
K562 [5] = experiment: Antiproliferative activity against human K562 cells at 1 uM in presence of guanosine; format: functional, cell-based
[6] = target: Histone deacetylase (Homo sapiens) (UniProt Q13547+O15379+Q9UBN7+Q92769+Q9UQL6+Q8WUI4+Q9BY41+Q96DB2+P56524+Q9UKV0+Q969S8); experiment: Inhibition of HDAC in human K562 cells using Boc-Lys[Ac]-AMC as substrate at 10 uM incubated for 10 mins prior to substrate addition measured after 80 mins by fluorescence assay; format: cell-based
K562 [7] = experiment: Antiproliferative activity against human K562 cells at 1 uM; format: functional, cell-based
K562 [8] = experiment: Antiproliferative activity against human K562 cells at 1 mM in presence of guanosine; format: functional, cell-based
K562 [9] = experiment: Induction of human K562 cell differentiation at 1 to 30 uM after 72 hrs by trypan blue exclusion assay in presence of guanosine; format: functional, cell-based
Homo sapiens = species: Homo sapiens; experiment: Selectivity index, ratio of IC50 for human IMPDH1 to IC50 for human IMPDH2
K562 [10] = experiment: Induction of human K562 cell differentiation at 30 uM after 72 hrs by trypan blue exclusion assay; format: functional, cell-based
K562 [11] = experiment: Induction of human K562 cell differentiation at 5 uM after 72 hrs by trypan blue exclusion assay in presence of guanosine; format: functional, cell-based
K562 [12] = experiment: Antiproliferative activity against human K562 cells at 5 uM in presence of guanosine; format: functional, cell-based
K562 [13] = experiment: Antiproliferative activity against human K562 cells at 5 uM; format: functional, cell-based
K562 [14] = experiment: Induction of human K562 cell differentiation at 2.5 uM after 72 hrs by trypan blue exclusion assay in presence of guanosine; format: functional, cell-based
K562 [15] = experiment: Antiproliferative activity against human K562 cells at 2.5 uM in presence of guanosine; format: functional, cell-based
K562 [16] = experiment: Antiproliferative activity against human K562 cells at 2.5 uM; format: functional, cell-based

Chain of Inosine-5'-monophosphate dehydrogenase 1 (P20839 whole entry): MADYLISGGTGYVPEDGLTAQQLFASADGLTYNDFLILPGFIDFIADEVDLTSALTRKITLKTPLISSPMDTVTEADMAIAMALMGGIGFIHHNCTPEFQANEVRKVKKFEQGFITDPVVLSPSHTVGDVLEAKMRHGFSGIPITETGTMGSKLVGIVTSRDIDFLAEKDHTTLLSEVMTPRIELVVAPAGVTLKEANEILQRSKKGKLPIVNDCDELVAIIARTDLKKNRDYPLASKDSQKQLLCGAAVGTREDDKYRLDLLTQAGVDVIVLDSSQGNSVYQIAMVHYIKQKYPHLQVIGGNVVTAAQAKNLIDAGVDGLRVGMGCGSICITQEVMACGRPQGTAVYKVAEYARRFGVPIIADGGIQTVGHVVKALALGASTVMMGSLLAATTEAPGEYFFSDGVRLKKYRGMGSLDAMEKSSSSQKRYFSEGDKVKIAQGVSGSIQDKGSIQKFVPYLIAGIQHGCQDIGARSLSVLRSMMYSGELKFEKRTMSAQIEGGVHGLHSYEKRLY

Q: With `COc1c(C)c2c(c(O)c1C/C=C(\C)CCC(=O)[C@@H]1CO1)C(=O)OC2` [listing 1 of 3 here] as the molecule, how does the IC50 [1] read?
A: Its IC50 is 558 nM.

Q: And the IC50 [2]?
A: The IC50 was 330 nM.

Q: What about the IC50 (K562 [3]) of the same molecule?
A: Its IC50 is 2900 nM.

Q: For `COc1c(C)c2c(c(O)c1C/C=C(\C)CCC(=O)Nc1nncs1)C(=O)OC2`, which IC50 (K562 [3]) is on record?
A: Its IC50 is 27000 nM.

Q: How did the IC50 (K562 [3]) turn out when `COc1c(C)c2c(c(O)c1C/C=C(\C)CCC(=O)Nc1nccs1)C(=O)OC2` was run?
A: Its IC50 is 22000 nM.

Q: What does the source list for `COc1c(C)c2c(c(O)c1C/C=C(\C)CCC(=O)[C@@H]1CO1)C(=O)OC2` [listing 2 of 3 here]?
A: IC50 [1]: 680 nM; IC50 [2]: 387 nM; IC50 (K562 [3]): 2300 nM

Q: With `COc1c(C)c2c(c(O)c1C/C=C(\C)CCC(=O)O)C(=O)OC2` as the molecule, how does the Activity (K562 [4]) read?
A: Its Activity is “inactive”.

Q: What about the Activity (K562 [5]) of the same molecule?
A: The Activity was “inactive”.

Q: And the inhibition [6]?
A: Its inhibition is 3%.

Q: What about the Activity (K562 [7]) of the same molecule?
A: The Activity was “Active”.

Q: `COc1c(C)c2c(c(O)c1C/C=C(\C)CCC(=O)Nc1ccccn1)C(=O)OC2` was tested. Which IC50 (K562 [3]) did it give?
A: The IC50 was 26000 nM.

Q: Which Activity (K562 [8]) does the source give for `CCCC(=O)[O-].[Na+]` here?
A: Its Activity is “Active”.

Q: `COc1c(C)c2c(c(O)c1C/C=C(\C)CCCS)C(=O)OC2` was tested. Which IC50 (K562 [3]) did it give?
A: The IC50 was 74000 nM.

Q: `COc1c(C)c2c(c(O)c1C/C=C(\C)CCC(=O)Nn1cnnc1)C(=O)OC2` was tested. Which IC50 (K562 [3]) did it give?
A: The IC50 was 31000 nM.

Q: For `COc1c(C)c2c(c(O)c1C/C=C(\C)CCC(=O)Nc1ncn[nH]1)C(=O)OC2`, which Activity (K562 [9]) is on record?
A: Its Activity is “inactive”.

Q: What about the Activity (K562 [5]) of the same molecule?
A: The Activity was “inactive”.

Q: And the Ratio IC50 (Homo sapiens)?
A: The Ratio IC50 was 1.1.

Q: And the IC50 [1]?
A: Its IC50 is 105 nM.

Q: And the IC50 [2]?
A: The IC50 was 98 nM.

Q: What about the Activity (K562 [7]) of the same molecule?
A: The Activity was “Active”.

Q: What about the Activity (K562 [10]) of the same molecule?
A: Its Activity is “Active”.

Q: What about the IC50 (K562 [3]) of the same molecule?
A: The IC50 was 480 nM.

Q: With `COc1c(C)c2c(c(O)c1C/C=C(\C)CCCSC(C)=O)C(=O)OC2` as the molecule, how does the IC50 (K562 [3]) read?
A: Its IC50 is 26000 nM.

Q: How did the IC50 (K562 [3]) turn out when `COc1c(C)c2c(c(O)c1C/C=C(\C)CCC(=O)Nc1nnn[nH]1)C(=O)OC2` was run?
A: Its IC50 is 34000 nM.

Q: How did the Activity (K562 [11]) turn out when `COc1c(C)c2c(c(O)c1C/C=C(\C)CCC(=O)[C@@H]1CO1)C(=O)OC2` [listing 3 of 3 here] was run?
A: The Activity was “inactive”.

Q: What about the Activity (K562 [12]) of the same molecule?
A: The Activity was “inactive”.

Q: And the inhibition [6]?
A: The inhibition was 15% and 19%.

Q: And the Ratio IC50 (Homo sapiens)?
A: Its Ratio IC50 is 1.8 and 1.7.

Q: What about the Activity (K562 [13]) of the same molecule?
A: Its Activity is “Active”.

Q: How did the Activity (K562 [14]) turn out when `COc1c(C)c2c(c(O)c1C/C=C(\C)CCC(=O)NO)C(=O)OC2` was run?
A: The Activity was “inactive”.

Q: What about the Activity (K562 [15]) of the same molecule?
A: Its Activity is “inactive”.

Q: And the inhibition [6]?
A: Its inhibition is 76%.

Q: What about the Activity (K562 [16]) of the same molecule?
A: Its Activity is “Active”.
